Source: US20050165025A1, “Combination therapy with 5HT 1A and 5HT 1B-receptor antagonists” (Recordati Ireland Ltd., priority 2004, published 2005)
pKi: −log10 of the molar value. Where two headings read alike, the source gives them in different places.

Experiments:
anaesthetised rats = assay: Rhythmic bladder-voiding contractions induced by bladder filling in anaesthetised rats; format: in vivo, rat; details: compound alone
Protocol: Female Sprague-Dawley rats weighing 225-275 g (Crl: CDo Br, Charles River Italia) were used. The animals were housed with free access to food and water and maintained on a forced 12-hour alternating light-dark cycle at 22-24° C. for at least one week, except during the experiment. The activity on rhythmic bladder voiding contractions was evaluated according to the method of Dray J., Pharmacol. Methods, 13:157, 1985, with some modifications as in Guarneri (Guarneri, Pharmacol. Res. 27:173, 1993. Briefly, the rats were anaesthetised by subcutaneous injection of 1.25 g/kg (5 ml/kg) urethane, after which the urinary bladder was catheterised via the urethra using PE 50 polyethylene tubing filled with physiological saline. The catheter was tied in place with a ligature around the external urethral orifice and was connected to conventional pressure transducers (Statham P23 ID/P23 XL). […] The bladder was then filled via the recording catheter by incremental volumes of warm (37° C.) saline until reflex bladder-voiding contractions occurred (usually 0.8-1.5 ml). For intravenous injection of bioactive compounds, PE 50 polyethylene tubing filled with physiological saline was inserted into the jugular vein. Tested compounds were administered or co-administered in solution in a final volume of 0.5 ml/kg.
From the cystometrogram, the number of contractions recorded 15 minutes before (basal values) and after treatment, as well as the mean amplitude of these contractions (mean height of the peaks in mmHg), was evaluated.
Since most compounds produced an effect that was relatively rapid in onset and led to a complete cessation of bladder contractions, bioactivity was conveniently estimated by measuring the duration of bladder quiescence (i.e., the length of the time in minutes during which no contractions occurred: disappearance time=DT). The administered doses (alone or in combination) of the tested compounds were chosen on the basis of previously published results obtained with the same compounds in the utilized model (Testa et al., J. Pharmacol. Exp. Ther. 290: 1258, 1999; Leonardi et al., J. Pharmacol. Exp. Ther. 299: 1027, 2001; Testa et al., BJU Int. 87: 256, 2001) or of their affinity for the 5HT1A or 5-HT1B receptor.

[1] = molecular target: T1, human 5HT1A-serotonergic receptor (Homo sapiens, UniProt P08908); details: literature reference given in table; read-out: Binding affinity at 5HT1A receptors, Ki; cited from earlier work
T1 construct: expressed in transfected cells; host or cells: HeLa (human), stably transfected; cell membranes
T1 sequence (P08908 1-422): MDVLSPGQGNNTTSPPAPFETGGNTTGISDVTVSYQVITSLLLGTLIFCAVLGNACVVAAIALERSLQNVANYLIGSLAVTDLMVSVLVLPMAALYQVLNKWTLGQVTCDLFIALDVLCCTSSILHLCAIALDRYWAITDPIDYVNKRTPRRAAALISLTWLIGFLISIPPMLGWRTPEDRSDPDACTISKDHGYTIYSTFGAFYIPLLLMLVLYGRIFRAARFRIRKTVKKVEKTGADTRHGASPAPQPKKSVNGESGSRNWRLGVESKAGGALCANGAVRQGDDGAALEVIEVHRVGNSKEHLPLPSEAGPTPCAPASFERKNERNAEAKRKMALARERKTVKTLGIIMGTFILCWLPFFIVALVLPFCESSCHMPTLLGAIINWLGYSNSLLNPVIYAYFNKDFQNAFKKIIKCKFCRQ

[2] = molecular target: T1, human 5HT1A-serotonergic receptor; assay: Radioligand binding to recombinant 5-HT1A receptors ([3H]8-OH-DPAT, HeLa cell membranes); details: Recordati data on file; read-out: Binding affinity at 5HT1A receptors, Ki
Protocol: Genomic clone G-21 coding for the human 5HT1A-serotonergic receptor was stably transfected in a human cell line (HeLa). HeLa cells were grown as monolayers in Dulbecco's modified Eagle medium (DMEM), containing 10% fetal bovine serum, gentamicin ([…]) and 5% carbon dioxide, at 37° C. The cells were detached from the growth flask at 95% confluence by a cell scraper and were lysed in cold 5 mM Tris and 5 mM EDTA buffer (pH 7.4). The homogenates were centrifuged at 40000×g×20 minutes and the pellets were resuspended in a small volume of cold 5 mM Tris and 5 mM EDTA buffer (pH 7.4) and immediately frozen and stored at −70° C. until use. On the day of experiment, the cell membranes were resuspended in incubation buffer: 50 mM Tris HCl (pH 7.4), 2.5 mM MgCl2, […] (Fargin et al., Nature 335, 358, 1988). The membranes were incubated in a fmal volume of 1 ml for 30 minutes at 30° C. with 1 nM [^3H]8—OH-DPAT, in the absence or presence of the test compounds. Non-specific binding was determined in the presence of 10 μM 5-HT. […]
The affinity of the tested compounds was evaluated as inhibition of specific binding of the radioligand to 5-HT1A receptors (IC50) by using the non-linear curve-fitting program Allfit (De Lean et al., Am. J. Physiol. 235: E97, 1978). […]

For COc1ccccc1N1CCN(CCN(C(=O)C2CCCCC2)c2ccccc2[N+](=O)[O-])CC1 [REC 15/3079, 1-[N-(2-nitrophenyl)-N-cyclohexylcarbonyl-2-aminoethyl]-4-(2-methoxyphenyl)piperazine], the “disappearance time (DT) of bladder contractions” value (“disappearance time (DT)” for short) (anaesthetised rats; 0.03 mg/kg i.v.) is given as 2.26 ± 0.51 min and the pKi [1] is given as 9.70.

For O=C1c2ccccc2S(=O)(=O)N1CCCCN1CCN(c2cc(Cl)cc3c2OCCO3)CC1 [Rec 0/031 1-DU 125530, 2-[4-[4-(7-chloro-2,3-dihydro-1,4-benzodioxin-5-yl)piperazin-1-yl]butyl]-1,2-benzisothiazol-3(2H)-one 1,1-dioxide], the “disappearance time (DT)” value (anaesthetised rats; 0.01 mg/kg i.v.) was 6.96 ± 1.05 min.

In the case of OC(CCN1CCN(c2cccc3[nH]ccc23)CC1)(c1ccccn1)c1ccccn1 [Rec 27/0206, 1-[3-hydroxy-3,3 bis-(2-pyridyl)propyl]-4-(4-indolyl)piperazine], the “disappearance time (DT)” value (anaesthetised rats; 0.1 mg/kg i.v.) was 9.29 ± 0.80 min and the pKi [2] was 8.32.

In the case of COc1ccc(NC(=O)c2ccc(-c3ccc(-c4noc(C)n4)cc3C)cc2)cc1OCCN(C)C [SB 216641], the “disappearance time (DT)” value (anaesthetised rats; 0.3 mg/kg i.v.) was 1.50 ± 0.28 min.

For Cc1nc(-c2ccc(-c3ccc(C(=O)N4CCc5cc6c(cc54)C4(CCN(C)CC4)CO6)cc3)c(C)c2)no1 [SB 224289], the “disappearance time (DT)” value (anaesthetised rats; 1.0 mg/kg i.v.) was 2.40 ± 0.46 min.

In the case of COc1ccccc1N1CCN(CCN(C(=O)C2CCCCC2)c2ccccn2)CC1 [WAY 100635, N-[2-[4-(2-methoxyphenyl)piperazin-1-yl]ethyl]-N-(2-pyridyl)cyclohexanecarboxamide], the “disappearance time (DT)” value (anaesthetised rats; 0.01 mg/kg i.v.) was 10.39 ± 1.45 min.
